# From patent US8642643B2, “CXCR2 antagonists” (Sanofi, priority 2006, dated 2014)
# Molecular target: T1, human CXCR2 (Homo sapiens, UniProt P25025)
# T1 construct: expressed in transfected cells; host or cells: CHO-K1
# T1 sequence (P25025 1-360): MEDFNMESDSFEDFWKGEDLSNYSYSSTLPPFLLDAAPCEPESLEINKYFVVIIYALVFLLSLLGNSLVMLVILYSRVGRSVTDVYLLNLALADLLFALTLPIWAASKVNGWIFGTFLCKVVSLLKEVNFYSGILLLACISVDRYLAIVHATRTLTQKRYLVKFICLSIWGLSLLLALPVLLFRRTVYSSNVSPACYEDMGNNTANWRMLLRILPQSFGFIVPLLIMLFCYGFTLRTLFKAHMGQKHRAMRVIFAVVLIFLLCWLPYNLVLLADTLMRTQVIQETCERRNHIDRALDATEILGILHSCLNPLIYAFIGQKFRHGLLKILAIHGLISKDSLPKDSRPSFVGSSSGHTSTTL
# Test: CXCR2 inhibition: calcium fluorescence assay (FLIPR)
# Assay type: cell-based
# Conditions: chemokine IL-8; CHO-K1 cells stably transfected with human CXCR2 and Gα16; calcium response (Fluo-4)
# From the text: Determination of CXCR2 Inhibition: Calcium Fluorescence Assay (FLIPR)
# The assay is based on the detection of intracellular calcium changes detected by the selective, calcium-chelating dye, Fluo-4 (Molecular Probes). A large fluorescence intensity increase is observed upon calcium association with Fluo-4. The dye is delivered to the cell interior using an acetoxymethylester form of Fluo-4, where the intracellular esterase activity results in the charged species being released and trapped within the cytoplasm of the cell. […] By co-expressing the CXCR2 receptor and the promiscuous Gα16 protein, activation of this chemokine receptor is directed into this phospholipase C cascade resulting in intracellular calcium mobilization.
# The CHO-K1 cells stably transfected with human CXCR2 and the promiscuous Gα16 protein were maintained in a log phase of growth at 37° C. and 5% CO2 in the following media: Iscove's, 10% FBS, 1× Penicillin-Streptomycin, 400 μg/ml G418 and 350 μg/ml Zeocin. Approximately 24-48 hours prior to the assay, 20,000-30,000 cells/well were plated onto a 96-well black/clear bottomed assay plate (Becton Dickinson) with a well volume of 180 μl. For dye loading the culture medium was carefully removed and replaced by 100 μl/well dye solution (4 μM Fluo-4 in 135 mM NaCl, 5 mM KCl, 1 mM magnesium sulphate, 5 mM glucose, 20 mM hepes, 2.5 mM probenecid; pH 7.4). Cells were incubated for 1 h at 37° C., and then washed 3× with buffer. After washing 90 μl buffer/well were left. Increasing concentrations of compound was added in 45 μl buffer (4× concentrated) followed by 10 min incubation at 37° C. Then the chemokine (10-100 nM) was applied in 45 μl buffer (4× concentrated) and the measurement performed for 2 min. The IC50 value of a compound was determined by calculation of % inhibition of total calcium response to the chemokine.
row,SMILES,IC50 [nM]
1,"CC(C)(NC(=O)c1ccc2c(c1OCc1nc3ccccc3s1)CCCC2)C(=O)O [Example 2, 2-{[1-(Benzothiazol-2-ylmethoxy)-5,6,7,8-tetrahydro-naphthalene-2-carbonyl]-amino}-2-methyl-propionic acid]",600
2,"CC(C)(NC(=O)c1ccc2sccc2c1OCc1ccc(C(F)(F)F)cc1)C(=O)O [Example 13, 2-Methyl-2-{[4-(4-trifluoromethyl-benzyloxy)-benzo[b]thiophene-5-carbonyl]-amino}-propionic acid]",1100
3,"CCC(C)(NC(=O)c1ccc2c(c1OCc1nc3ccccc3s1)CCCC2)C(=O)O (stereo not shown) [Example 5, 2-{[1-(Benzothiazol-2-ylmethoxy)-5,6,7,8-tetrahydro-naphthalene-2-carbonyl]-amino}-2-methyl-butyric acid]",400
4,"CCC(C)(NC(=O)c1ccc2c(c1OCc1ccc(OC(F)(F)F)cc1)CCCC2)C(=O)O (stereo not shown) [Example 9, 2-Methyl-2-{[1-(4-trifluoromethoxy-benzyloxy)-5,6,7,8-tetrahydro-naphthalene-2-carbonyl]-amino}-butyric acid]",1500

# More lines, in order of falling IC50, values ahead:
row,IC50 [nM],SMILES
1,1800,"CC(C)(NC(=O)c1ccc2c(c1OCc1ccc(C(F)(F)F)cc1F)CCCC2)C(=O)O [Example 8, 2-{[1-(2-Fluoro-4-trifluoromethyl-benzyloxy)-5,6,7,8-tetrahydro-naphthalene-2-carbonyl]-amino}-2-methyl-propionic acid]"
2,1600,"Cc1cc(C(=O)NC(C)(C)C(=O)O)c(OCc2ccc(C(F)(F)F)cc2)c2c1CCC2 [Example 11, 2-Methyl-2-{[7-methyl-4-(4-trifluoromethyl-benzyloxy)-indane-5-carbonyl]-amino}-propionic acid]"
3,700,"CC(C)(NC(=O)c1ccc2ccsc2c1OCc1ccc(C(F)(F)F)cc1)C(=O)O [Example 12, 2-Methyl-2-{[7-(4-trifluoromethyl-benzyloxy)-benzo[b]thiophene-6-carbonyl]-amino}-propionic acid]"
